Experiments:
[1] = tested on: Primary human progenitor cells; assay: Differentiation in osteogenic media: mineralisation assay; type: cell-based; settings: for differentiation into osteoblasts/osteocytes: osteogenic media, particularly at 1 and 10 micrograms PPS/mL, FIG. 7
Experimental: FIG. 7. The Effects of Pentosan Polysulfate (PPS) on Human progenitor cell Differentiation: Mineralisation Assay. Primary human progenitor cells were cultured in 96 wells plates in non-osteoinductive growth media (media control) or in osteoinductive conditions (alphaMEM supplemented with 10% FCS, 100 microM L-ascorbate-2-phosphate, dexamethasone 10^−7 M and 3 mM inorganic phosphate) in the presence of PPS at the indicated concentrations. On day 28, the concentration of acid solubilisd calcium per well was determined using the Cresolphthalein Complexone method. (A) The concentration of acid solubilised calcium per microg of DNA/well was determined following the assessment of the total amount of DNA per well using a fluorogenic DNA stain (Hoeshst 33258). […] (B) Phase-contrast photomicrographs of mineralised cultures at ×20 magnification.
The conditions necessary for the induction of human progenitor cells to develop mineralised bone matrix in vitro have been previously described (Gronthos S, A C Zannettino, S J Hay, S Shi, S E Graves, A Kortesidis and P J Simmons. (2003). Molecular and cellular characterisation of highly purified stromal stem cells derived from human bone marrow. J Cell Sci 116:1827-1835). The osteoinductive media consists of alpha-MEM media supplemented with 2% (v/v) FCS, 1.8 mM KH2PO4, 10-7 dexamethasone sodium phosphate, 50 IU/ml penicillin, 50 μg/mL streptomycin, 1 mM Sodium Pyruvate, 100 μM L-Ascorbic acid 2-phosphate, 2 mM L-glutamine and 10 mM HEPES buffer. […]
Total mineral content per well in the above cultures was assessed by measuring the calcium levels per total DNA in each well. […] The acid-solubilzed mineral 23 was transferred to a new 96-well plate and reacted with o-cresol-phthalein-complexone (Thermal Electron Corporation, USA) to form a purple dye that was measured at 570 nm using an EL 808 Ultra Microplate Reader. […] Absolute absorbance was determined by measuring against a series of DNA standards at 350 nm by LS55 Luminescence Spectrometer (Perkin Elmer).

Type II collagen = assay: Gene expression in 6-day pellet culture (RT-PCR); type: cell-based, murine; settings: ATDC5 cells; 6 days in pellet culture; FIG. 13
Experimental: FIG. 13. Gene Expression by ATDC5 cells of Type II collagen and Sox-9 in 6-day pellet culture incubated with various concentrations of PPS in Maintenance Medium (MM).
Total RNA was isolated from Progenitor cells according to the manufacturer's instructions for the Aurum total RNA mini kit (Bio-Rad, USA). The RNA was reverse transcribed with RevertAid™ H Minus First Stand cDNA Synthesis Kit (Fermentas, USA). PCR products were transferred to an agarose gel, and visualized by ethidium bromide staining, and integrated densities calculated using Scion image analysis software, normalized to the house-keeping gene Glyceraldehydes-3-phosphate dehydrogenase (GAPDH) to permit semi-quantitative comparisons in mRNA levels. (L. Marchuk, P. Sciore, C. Reno, C. B. Frank, D. A. Hart. Postmortem stability of total RNA isolated from rabbit ligament, tendon and cartilage, Biochim Biophys Acta. 1379 (1998) 171-177. R. Boykiw, P. Sciore, C. Reno, L. Marchuk, C. B. Frank, D. A. Hart. Altered levels of extracellular matrix molecule mRNA in healing rabbit ligaments, Matrix Biol. 17 (1998) 371-378.)

pentosan polysulfate [PPS]
differentiation into osteoblasts/osteocytes [1]: suppressed differentiation into osteocytes
differentiation into osteoblasts/osteocytes ([1]; listed as polysulfated polysaccharides): suppress differentiation of progenitor cells to this cell phenotype
calcified deposits in cultures (photomicrographs) ([1]; osteoinductive conditions, FIG. 7B): no calcified deposits are present
type II collagen expression (Type II collagen): up-regulated in a concentration dependent manner

— US9888679B2, “Protection of progenitor cells and regulation of their differentiation” (Proteobioactives Pty Ltd, priority 2007, dated 2018)
